According to patent US10344330B2, “Glatiramer acetate response biomarker mRNA potency assay” (Mylan Inc., priority 2013, dated 2019):

Columns and labels:
Format in all cases: cell-based, mouse
[1] = test system: IL-2 mRNA in LN cells; test: IL-2 mRNA by real-time PCR in LN cells of GA-immunized CD-1, BALB/cByJ, SJL/J mice (Example III); conditions: 6 hours
Procedure: (§1) On Day 0, mice were immunized with 250 μg GA (GMA, Mylan Pharmaceuticals, Inc.) and CFA. The GA solution (20 mg/mL) was diluted with Dulbecco's Phosphate-Buffered Saline to 5 mg/mL. The dosing formulation consisted of equal volumes of the diluted GA solution (5 mg/mL) and CFA solution, mixed until well-emulsified. Animals were weighed and allocated to groups. Animals were dosed by injection into four footpads. The injection volume per animal was 0.1 mL (about 10 μL into each front footpad, and 40 μL into each hind footpad).
(§2) Immunized animals were euthanized by cervical dislocation on Day 10 post-immunization. Lymph node cells were isolated from animals and treated with Myelin Basic Protein (MBP, a negative control), Concanavalin A (ConA, a positive control) or GA as shown in Table 16. Lymph nodes in the axillary and popliteal regions were removed aseptically in a purifier clean bench. […] The LN were then washed 3 times with −5 mL of RPMI medium, and isolated by pressing the LN with a syringe plunger. […] The cell suspension was centrifuged at about 200×g for 10 minutes at about 4° C. and re-suspended in ice cold enriched DCCM-1 medium. Cells were seeded in 96-well tissue culture plates.
(§3) LN cells isolated from GA-immunized animals were stimulated with GA (GMA, Mylan Pharmaceuticals, Inc.) at concentrations as indicated in Tables 16 and 17. A positive control was prepared by treating LN cells with 2.5 μg/mL concavalin A (ConA, a non-specific T cell stimulant). Myelin basic protein (MBP, 10 μg/mL) and enriched DCCM-1 medium served as negative controls. The cells from all groups each were stimulated with the same GA lot. Each reaction was set up in triplicate.
(§4) After incubation at about 37° C. in a humidified CO2 incubator for 6 hours, the cells were lysed for total RNA isolation. Total RNA was isolated from treated LN cells using SV 96 Total RNA Isolation System according to the manufacturer's protocol (Promega, Cat. #Z3500). Cells were washed once with Phosphate Buffered Saline (PBS) and lysed in RNA lysis buffer. The lysate was transferred to wells of the SV 96 binding plate. Samples were washed with RNA wash solution and treated with DNase. Total RNA was eluted with nuclease-free water from the binding plate.
(§5) After the reverse transcriptase reaction was completed, cDNA samples were used directly for real-time PCR to measure the response biomarker mRNA levels produced by the stimulated cells. […] All probes for target genes contained FAM dye, and probes for the internal control contained VIC®/MGB dye. Samples will be prepared and run in 96-well plates using a Real-Time PCR system (7500, Life Technologies). This system allows direct detection of PCR-product formation by measuring the increase in fluorescent emission continuously during the PCR reaction. A relative quantitation method was used to analyze changes in mouse IL-2, IL-4, IL-5, IL-10, IL-13, IFN-γ and TNF-α expression in GA-treated samples relative to the untreated control (enriched DCCM-1 treated) samples. The Real-Time PCR program was:
(§6) The levels of mouse cytokine amplicons (IL-2, IL-4, IL-5, IL-10, IL-13, mIFN-γ and TNF-α) were normalized to internal probe levels (GAPDH) from the same samples. The following equations were used to calculate the relative increase in response to GA stimulation compared to the control sample: ΔCT=CT_target−CT_reference ΔΔCT=−ΔCT_Treated−CT_VC

[2] = test system: IL-13 mRNA in LN cells; test: IL-13 mRNA by real-time PCR in LN cells of GA-immunized CD-1, BALB/cByJ, SJL/J mice (Example III); conditions: 6 hours
Procedure: as §1, §2, §3, §4, §5, §6

[3] = test system: mIFN-γ mRNA in primary LN cells; test: mIFN-γ mRNA by real-time PCR in stimulated LN cells of immunized (SJL/J×BALB/C)F1 mice (Example I)
Procedure: For each of the three experiments summarized in Table 1, female (SJL/J×BALB/C) F1 hybrid (Jackson Laboratory) mice were immunized by footpad injection with either 250 μg GMA (Mylan Pharmaceuticals, Inc.) and CFA (Sigma Aldrich), or Mannitol and CFA (as a negative control). The GA solution was diluted to 5 mg/mL with Dulbecco's Phosphate-buffered saline. A dose solution was then prepared by mixing the diluted GA solution (5 mg/mL) and CFA (1:1) until well-emulsified. Each mouse received a total injection volume of 0.1 mL (250 μg GA). Animals were immunized on Day 0. Immunized animals were sacrificed via cervical dislocation on Day 10 following immunization. […] The LN were washed 3 times with −5 mL of RPMI medium, and the LN cells isolated by pressing the LN with a syringe plunger. […] The cell suspension was centrifuged at about 200×g for 10 minutes at about 4° C. and re-suspended in ice cold enriched DCCM-1 medium. The LN cells (2.5×10^6 cells/cm^2) were plated in the wells of a 48-well tissue culture plate and stimulated with GA or controls.
Expression of cytokine mRNA was quantitatively analyzed using a Real-Time PCR system (7500, Applied Biosystems).
(DCCM1 from Beit Haemek Ltd.; Cat. No. 05 010 1A). There was no MBP treatment for the 2-hour groups.
Group 1B animals were female (SJL/J×BALB/C) F1 hybrid (Jackson Laboratory) mice immunized by footpad injection with either 250 μg GA and CFA, or Mannitol and CFA (as a negative control). A dose solution was prepared by mixing a diluted GA solution (5 mg/mL) and CFA (1:1). Each mouse received a total injection volume of […] (250 μg GA). Animals were immunized on Day 0. Immunized animals were sacrificed via cervical dislocation on Day 10 following immunization. Lymph nodes from immunized mice were removed and isolated. LN cells (2.5×10^6 cells/cm^2) were plated in the wells of a 48-well tissue culture plate for stimulation with GA.
Expression of cytokine mRNA was quantitatively analyzed 4 and 6 hours after using a Real-Time PCR system (7500, Applied Biosystems).

[4] = Group 1C: CD-1, GA-immunized, stimulation 2.5 μg/mL
[5] = Group 2C: BALB/cByJ, GA-immunized, stimulation 2.5 μg/mL
[6] = Group 3C: SJL/J, GA-immunized, stimulation 2.5 μg/mL
[7] = Experiment 1, GA-immunized (SJL/J×BALB/C)F1, 2 hour post stimulation, GA 10, ConA 2.5 μg/mL
[8] = Experiment 1, GA-immunized (SJL/J×BALB/C)F1, 4 hour post stimulation, GA 10, MBP 10, ConA 2.5 μg/mL
[9] = Experiment 1, GA-immunized (SJL/J×BALB/C)F1, 6 hour post stimulation, GA 10, MBP 10, ConA 2.5 μg/mL
[10] = Experiment 1, GA-immunized (SJL/J×BALB/C)F1, 24 hour post stimulation, GA 10, MBP 10, ConA 2.5 μg/mL
[11] = Group 1B (GA + CFA), 4 hours post-stimulation, GA 10, MBP 10, ConA 2.5 μg/mL, reference GAPDH
[12] = Group 1B (GA + CFA), 6 hours post-stimulation, GA 10, MBP 10, ConA 2.5 μg/mL, reference GAPDH
[13] = Group 2B (Mannitol + CFA), 4 hours post-stimulation, GA 10, MBP 10, ConA 2.5 μg/mL, reference GAPDH
[14] = Group 2B (Mannitol + CFA), 6 hours post-stimulation, GA 10, MBP 10, ConA 2.5 μg/mL, reference GAPDH
[15] = Group 1C: CD-1, GA-immunized, stimulation 0.3 μg/mL
[16] = Group 1C: CD-1, GA-immunized, stimulation 1 μg/mL
[17] = Group 1C: CD-1, GA-immunized, stimulation 3 μg/mL
[18] = Group 1C: CD-1, GA-immunized, stimulation 10 μg/mL
[19] = Group 2C: BALB/cByJ, GA-immunized, stimulation 0.3 μg/mL
[20] = Group 2C: BALB/cByJ, GA-immunized, stimulation 1 μg/mL
[21] = Group 2C: BALB/cByJ, GA-immunized, stimulation 3 μg/mL
[22] = Group 2C: BALB/cByJ, GA-immunized, stimulation 10 μg/mL
[23] = Group 3C: SJL/J, GA-immunized, stimulation 0.3 μg/mL
[24] = Group 3C: SJL/J, GA-immunized, stimulation 1 μg/mL
[25] = Group 3C: SJL/J, GA-immunized, stimulation 3 μg/mL
[26] = Group 3C: SJL/J, GA-immunized, stimulation 10 μg/mL

Molecule	mIFN-γ mRNA Level [3, 7]	mIFN-γ mRNA Level [3, 8]	mIFN-γ mRNA Level [3, 9]	mIFN-γ mRNA Level [3, 10]	mIFN-γ mRNA Level [3, 11]	mIFN-γ mRNA Level [3, 12]	mIFN-γ mRNA Level [3, 13]	mIFN-γ mRNA Level [3, 14]	IL-2 mRNA Expression [1, 18]	IL-2 mRNA Expression [1, 22]	IL-2 mRNA Expression [1, 26]	IL-13 mRNA Expression [2, 18]	IL-13 mRNA Expression [2, 22]	IL-13 mRNA Expression [2, 26]	other results
Concanavalin A [ConA, reference compound]	40.9 fold change vs control	49.3 fold change vs control	18.2 fold change vs control	0.4 fold change vs control	29.5 fold change vs control	3.0 fold change vs control	15.5 fold change vs control	8.9 fold change vs control	–	–	–	–	–	–	IL-2 mRNA Expression [1, 4]: 17.1 fold change vs control; IL-2 mRNA Expression [1, 5]: 231.7 fold change vs control; IL-2 mRNA Expression [1, 6]: 61.9 fold change vs control; IL-13 mRNA Expression [2, 4]: 31.3 fold change vs control; IL-13 mRNA Expression [2, 5]: 32.0 fold change vs control; IL-13 mRNA Expression [2, 6]: 24.4 fold change vs control
L-glutamic acid polymer with L-alanine, L-lysine and L-tyrosine, acetate (salt) [GA]	1.3 fold change vs control	2.1 fold change vs control	4.6 fold change vs control	4.6 fold change vs control	7.0 fold change vs control	2.4 fold change vs control	1.2 fold change vs control	1.8 fold change vs control	4.3 fold change vs control	38.0 fold change vs control	22.0 fold change vs control	12.3 fold change vs control	12.6 fold change vs control	20.0 fold change vs control	IL-2 mRNA Expression [1, 15]: 1.0 fold change vs control; IL-2 mRNA Expression [1, 16]: 1.6 fold change vs control; IL-2 mRNA Expression [1, 17]: 2.9 fold change vs control; IL-2 mRNA Expression [1, 19]: 4.0 fold change vs control; IL-2 mRNA Expression [1, 20]: 11.7 fold change vs control; IL-2 mRNA Expression [1, 21]: 27.4 fold change vs control; IL-2 mRNA Expression [1, 23]: 1.3 fold change vs control; IL-2 mRNA Expression [1, 24]: 4.7 fold change vs control; IL-2 mRNA Expression [1, 25]: 11.0 fold change vs control; IL-13 mRNA Expression [2, 15]: 1.7 fold change vs control; IL-13 mRNA Expression [2, 16]: 3.3 fold change vs control; IL-13 mRNA Expression [2, 17]: 9.4 fold change vs control; IL-13 mRNA Expression [2, 19]: 3.2 fold change vs control; IL-13 mRNA Expression [2, 20]: 9.1 fold change vs control; IL-13 mRNA Expression [2, 21]: 12.4 fold change vs control; IL-13 mRNA Expression [2, 23]: 1.7 fold change vs control; IL-13 mRNA Expression [2, 24]: 7.3 fold change vs control; IL-13 mRNA Expression [2, 25]: 12.9 fold change vs control
MBP: myelin basic protein, a negative control (protein, UniProt P02686 1-304, looked up) Myelin basic protein: MGNHAGKRELNAEKASTNSETNRGESEKKRNLGELSRTTSEDNEVFGEADANQNNGTSSQDTAVTDSKRTADPKNAWQDAHPADPGSRPHLIRLFSRDAPGREDNTFKDRPSESDELQTIQEDSAATSESLDVMASQKRPSQRHGSKYLATASTMDHARHGFLPRHRDTGILDSIGRFFGGDRGAPKRGSGKDSHHPARTAHYGSLPQKSHGRTQDENPVVHFFKNIVTPRTPPPSQGKGRGLSLSRFSWGAEGQRPGFGYGGRASDYKSAHKGFKGVDAQGTLSKIFKLGGRDSRSGSPMARR	–	0.8 fold change vs control	0.2 fold change vs control	0.6 fold change vs control	0.9 fold change vs control	0.6 fold change vs control	1.1 fold change vs control	0.9 fold change vs control	0.9 fold change vs control	2.7 fold change vs control	0.5 fold change vs control	1.5 fold change vs control	0.8 fold change vs control	0.6 fold change vs control	–
